{"source": "paper PMC5218480", "about": "(PLoS ONE, 2017)", "system": "MV-4-11 cells", "experiment": "Gene expression microarray analysis (Affymetrix PrimeView) and GSEA", "type": "cell-based, human", "parameters": "RFU PODN (11730768_x_at) / Fold change /veh PODN (11730768_x_at) / RFU LINC00158 (11744669_a_at) / Fold change /veh LINC00158 (11744669_a_at) / RFU DUSP10 (11751237_a_at) / Fold change /veh DUSP10 (11751237_a_at) / RFU ID3 (11757404_x_at) / Fold change /veh ID3 (11757404_x_at) / RFU PLEKHG5 (11737974_s_at) / Fold change /veh PLEKHG5 (11737974_s_at) / RFU LRRC4B (11730491_at) / Fold change /veh LRRC4B (11730491_at) / RFU GIMAP4 (11747438_a_at) / Fold change /veh GIMAP4 (11747438_a_at) / RFU KRT8 (11758183_x_at) / Fold change /veh KRT8 (11758183_x_at) / RFU CNN1 (11734310_a_at) / Fold change /veh CNN1 (11734310_a_at) / RFU VPS37D (11726825_at) / Fold change /veh VPS37D (11726825_at) / RFU C10orf10 (11716522_x_at) / Fold change /veh C10orf10 (11716522_x_at) / RFU KIR2DL2 /// KIR2DL4 /// KIR2DL5A /// KIR2DL5B /// KIR2DS1 /// KIR2DS2 /// KIR2DS3 /// KIR2DS4 /// KIR3DL3 /// KIR3DL3 /// KIR3DS1 (11738374_at) / Fold change /veh KIR2DL2 /// KIR2DL4 /// KIR2DL5A /// KIR2DL5B /// KIR2DS1 /// KIR2DS2 /// KIR2DS3 /// KIR2DS4 /// KIR3DL3 /// KIR3DL3 /// KIR3DS1 (11738374_at) / RFU C1QL1 (11718748_at) / Fold change /veh C1QL1 (11718748_at) / RFU TMPRSS4 (11747572_a_at) / Fold change /veh TMPRSS4 (11747572_a_at) / RFU HAMP (11756126_x_at) / Fold change /veh HAMP (11756126_x_at) / RFU RNFT2 (11725882_a_at) / Fold change /veh RNFT2 (11725882_a_at) / RFU NR4A2 (11747474_a_at) / Fold change /veh NR4A2 (11747474_a_at) / RFU ABCC12 (11746883_a_at) / Fold change /veh ABCC12 (11746883_a_at) / RFU TMEM136 (11760407_x_at) / Fold change /veh TMEM136 (11760407_x_at) / RFU CLDN22 /// WWC2 (11732394_at) / Fold change /veh CLDN22 /// WWC2 (11732394_at) / RFU HLA-DPB1 (11760878_x_at) / Fold change /veh HLA-DPB1 (11760878_x_at) / RFU SPINT1 (11716480_a_at) / Fold change /veh SPINT1 (11716480_a_at) / RFU GAP43 (11754022_s_at) / Fold change /veh GAP43 (11754022_s_at) / RFU A4GNT (11735810_at) / Fold change /veh A4GNT (11735810_at) / RFU PRB3 (11715151_x_at) / Fold change /veh PRB3 (11715151_x_at) / RFU TUBB4B (11761932_at) / Fold change /veh TUBB4B (11761932_at) / RFU CAPN14 (11732068_a_at) / Fold change /veh CAPN14 (11732068_a_at) / RFU TMCC2 (11721928_a_at) / Fold change /veh TMCC2 (11721928_a_at) / RFU IRGQ (11745062_a_at) / Fold change /veh IRGQ (11745062_a_at) / RFU FAM174B (11720279_a_at) / Fold change /veh FAM174B (11720279_a_at) / RFU TMPRSS4 (11748680_a_at) / Fold change /veh TMPRSS4 (11748680_a_at) / RFU FAM212B (11763350_a_at) / Fold change /veh FAM212B (11763350_a_at) / RFU PLEKHG5 (11743358_a_at) / Fold change /veh PLEKHG5 (11743358_a_at) / RFU ZSCAN30 (11745921_a_at) / Fold change /veh ZSCAN30 (11745921_a_at) / RFU CMKLR1 (11741424_a_at) / Fold change /veh CMKLR1 (11741424_a_at) / RFU LOC101060620 /// MAPK8IP1 (11723275_at) / Fold change /veh LOC101060620 /// MAPK8IP1 (11723275_at) / RFU SPTSSB (11747773_x_at) / Fold change /veh SPTSSB (11747773_x_at) / RFU PRSS12 (11739890_at) / Fold change /veh PRSS12 (11739890_at) / RFU BIN1 (11741810_x_at) / Fold change /veh BIN1 (11741810_x_at) / RFU WNT11 (11732464_a_at) / Fold change /veh WNT11 (11732464_a_at) / RFU C10orf10 (11716521_a_at) / Fold change /veh C10orf10 (11716521_a_at) / RFU C5orf56 (11738089_at) / Fold change /veh C5orf56 (11738089_at) / RFU CYB561 (11721691_x_at) / Fold change /veh CYB561 (11721691_x_at) / RFU ANKRD19P (11752326_a_at) / Fold change /veh ANKRD19P (11752326_a_at) / RFU OR2T12 /// OR2T33 /// OR2T8 (11738714_s_at) / Fold change /veh OR2T12 /// OR2T33 /// OR2T8 (11738714_s_at) / RFU VCAN (11748164_a_at) / Fold change /veh VCAN (11748164_a_at) / RFU JSRP1 (11732532_at) / Fold change /veh JSRP1 (11732532_at) / RFU KRTAP10-11 (11738290_x_at) / Fold change /veh KRTAP10-11 (11738290_x_at) / RFU MYO3A (11730013_a_at) / Fold change /veh MYO3A (11730013_a_at) / RFU EBF3 (11725865_a_at) / Fold change /veh EBF3 (11725865_a_at) / RFU CAMK2N1 (11719241_x_at) / Fold change /veh CAMK2N1 (11719241_x_at) / RFU C5orf56 (11738088_a_at) / Fold change /veh C5orf56 (11738088_a_at) / RFU OLFML3 (11715873_a_at) / Fold change /veh OLFML3 (11715873_a_at) / RFU LOC100653217 /// NTM (11731650_a_at) / Fold change /veh LOC100653217 /// NTM (11731650_a_at) / RFU MAPK11 (11762145_a_at) / Fold change /veh MAPK11 (11762145_a_at) / RFU FIZ1 (11724087_x_at) / Fold change /veh FIZ1 (11724087_x_at) / RFU OASL (11726364_x_at) / Fold change /veh OASL (11726364_x_at) / RFU SOX15 (11748057_x_at) / Fold change /veh SOX15 (11748057_x_at) / RFU CD79A (11719716_a_at) / Fold change /veh CD79A (11719716_a_at) / RFU HIST1H1D (11736915_at) / Fold change /veh HIST1H1D (11736915_at) / RFU CASKIN2 (11723855_a_at) / Fold change /veh CASKIN2 (11723855_a_at) / RFU LOC730098 (11760151_x_at) / Fold change /veh LOC730098 (11760151_x_at) / RFU OR4N2 (11742367_at) / Fold change /veh OR4N2 (11742367_at) / RFU PRRT2 (11749266_a_at) / Fold change /veh PRRT2 (11749266_a_at) / RFU SNX32 (11753110_a_at) / Fold change /veh SNX32 (11753110_a_at) / RFU CDHR5 (11726645_a_at) / Fold change /veh CDHR5 (11726645_a_at) / RFU RCAN1 (11760418_a_at) / Fold change /veh RCAN1 (11760418_a_at) / RFU FAM167A (11723789_a_at) / Fold change /veh FAM167A (11723789_a_at) / RFU FAM26E (11764081_at) / Fold change /veh FAM26E (11764081_at) / RFU ISYNA1 (11749810_s_at) / Fold change /veh ISYNA1 (11749810_s_at) / RFU ACY1 (11761880_at) / Fold change /veh ACY1 (11761880_at) / RFU 11764098_at / Fold change /veh 11764098_at / RFU SAMD14 (11745864_x_at) / Fold change /veh SAMD14 (11745864_x_at) / RFU NPB (11741838_a_at) / Fold change /veh NPB (11741838_a_at) / RFU TMPRSS6 (11731388_a_at) / Fold change /veh TMPRSS6 (11731388_a_at) / RFU KRTAP10-2 (11738614_at) / Fold change /veh KRTAP10-2 (11738614_at) / RFU ARHGAP8 /// PRR5-ARHGAP8 (11727945_x_at) / Fold change /veh ARHGAP8 /// PRR5-ARHGAP8 (11727945_x_at) / RFU KRTAP5-7 /// NADSYN1 (11734609_at) / Fold change /veh KRTAP5-7 /// NADSYN1 (11734609_at) / RFU RASL12 (11751679_a_at) / Fold change /veh RASL12 (11751679_a_at) / RFU CDKN2B (11736163_a_at) / Fold change /veh CDKN2B (11736163_a_at) / RFU PRF1 (11729649_at) / Fold change /veh PRF1 (11729649_at) / RFU, ZNF638 /// ZNF638-IT1 / Fold change vs veh, ZNF638 /// ZNF638-IT1 / RFU, PANK3 / Fold change vs veh, PANK3 / RFU, SH3YL1 / Fold change vs veh, SH3YL1 / RFU, ZEB2 / Fold change vs veh, ZEB2 / RFU, NRIP1 / Fold change vs veh, NRIP1 / RFU, PTTG1IP / Fold change vs veh, PTTG1IP / RFU, CAPN2 / Fold change vs veh, CAPN2 / RFU, MED14 / Fold change vs veh, MED14 / RFU, SNORA58 / Fold change vs veh, SNORA58 / RFU, C1orf63 / Fold change vs veh, C1orf63 / RFU, LRRFIP1 / Fold change vs veh, LRRFIP1 / RFU, NDUFAF7 / Fold change vs veh, NDUFAF7 / RFU, SLC12A2 / Fold change vs veh, SLC12A2 / RFU, IBTK / Fold change vs veh, IBTK / RFU, ESF1 / Fold change vs veh, ESF1 / Fold change vs veh, TMEM50B / RFU, TAOK1 / Fold change vs veh, TAOK1 / RFU, ACBD3 / Fold change vs veh, ACBD3 / RFU, TMA16 / Fold change vs veh, TMA16 / RFU, RWDD3 / Fold change vs veh, RWDD3 / RFU, BCAT1 / Fold change vs veh, BCAT1 / RFU, EDEM3 / Fold change vs veh, EDEM3 / RFU, TMEM33 / Fold change vs veh, TMEM33 / RFU, WDR75 / Fold change vs veh, WDR75 / RFU, AHCTF1 / Fold change vs veh, AHCTF1 / RFU, TFRC / Fold change vs veh, TFRC / RFU, ZDHHC17 / Fold change vs veh, ZDHHC17 / RFU, NOM1 / Fold change vs veh, NOM1 / RFU, ARL8B / Fold change vs veh, ARL8B / RFU, ZBTB11 / Fold change vs veh, ZBTB11 / RFU, TAMM41 / Fold change vs veh, TAMM41 / RFU, KIAA1704 /// LOC100996395 / Fold change vs veh, KIAA1704 /// LOC100996395 / RFU, ING1 / Fold change vs veh, ING1 / RFU, TRMT61B / Fold change vs veh, TRMT61B / RFU, FUBP3 / Fold change vs veh, FUBP3 / RFU, TP53 / Fold change vs veh, TP53 / RFU, TNKS2 / Fold change vs veh, TNKS2 / RFU, ZFP14 / Fold change vs veh, ZFP14 / RFU, ACTR2 / Fold change vs veh, ACTR2 / RFU, PPP3R1 / Fold change vs veh, PPP3R1 / RFU, PIK3R1 / Fold change vs veh, PIK3R1 / RFU, HNRNPA1 / Fold change vs veh, HNRNPA1 / RFU, RNF170 / Fold change vs veh, RNF170 / RFU, ZNF28 / Fold change vs veh, ZNF28 / RFU, RNGTT / Fold change vs veh, RNGTT / RFU, OGT / Fold change vs veh, OGT / RFU, BRD1 / Fold change vs veh, BRD1 / RFU, MARS / Fold change vs veh, MARS / RFU, ZNF655 / Fold change vs veh, ZNF655 / RFU, FAHD1 / Fold change vs veh, FAHD1 / RFU, BDP1 / Fold change vs veh, BDP1 / RFU, LRRCC1 / Fold change vs veh, LRRCC1 / RFU, ARID1A / Fold change vs veh, ARID1A / RFU, ZNF146 / Fold change vs veh, ZNF146 / RFU, ZNF330 / Fold change vs veh, ZNF330 / RFU, GPN3 / Fold change vs veh, GPN3 / RFU, C9orf123 / Fold change vs veh, C9orf123 / RFU, N4BP2L2 / Fold change vs veh, N4BP2L2 / RFU, ARFIP1 / Fold change vs veh, ARFIP1 / RFU, FAM179B / Fold change vs veh, FAM179B / RFU, BCL10 / Fold change vs veh, BCL10 / RFU, UHRF1BP1L / Fold change vs veh, UHRF1BP1L / RFU, BET1 / Fold change vs veh, BET1 / RFU, CNOT2 / Fold change vs veh, CNOT2 / RFU, ZNF268 / Fold change vs veh, ZNF268 / Fold change vs veh, ZNF507 / RFU, DGCR2 / Fold change vs veh, DGCR2 / RFU, WDSUB1 / Fold change vs veh, WDSUB1 / Fold change vs veh, HSP90B1 /// MIR3652 / RFU, ADSS / Fold change vs veh, ADSS / RFU, GK / Fold change vs veh, GK / RFU, ZNF148 / Fold change vs veh, ZNF148 / RFU, TAF9 / Fold change vs veh, TAF9 / RFU, SLC1A5 / Fold change vs veh, SLC1A5 / RFU, SLMO2 / Fold change vs veh, SLMO2 / RFU, ABCC4 / Fold change vs veh, ABCC4 / RFU, LOC101060439 /// RAP1B / Fold change vs veh, LOC101060439 /// RAP1B / RFU, RFX7 / Fold change vs veh, RFX7 / RFU, GTPBP10 / Fold change vs veh, GTPBP10 / RFU, CNEP1R1 / Fold change vs veh, CNEP1R1 / RFU, BIVM-ERCC5 /// ERCC5 / Fold change vs veh, BIVM-ERCC5 /// ERCC5 / RFU, ILF3 / Fold change vs veh, ILF3 / RFU 11762660_at / Fold change /veh 11762660_at / RFU VCAN (11757783_s_at) / Fold change /veh VCAN (11757783_s_at) / RFU DDX43 (11728927_at) / Fold change /veh DDX43 (11728927_at) / RFU KRT8 (11758188_x_at) / Fold change /veh KRT8 (11758188_x_at) / RFU NKD1 (11759106_at) / Fold change /veh NKD1 (11759106_at) / RFU SRD5A1 (11742802_a_at) / Fold change /veh SRD5A1 (11742802_a_at) / RFU TPSAB1 /// TPSB2 (11721975_s_at) / Fold change /veh TPSAB1 /// TPSB2 (11721975_s_at) / RFU GSTM3 (11746129_a_at) / Fold change /veh GSTM3 (11746129_a_at) / RFU IL23R (11737362_x_at) / Fold change /veh IL23R (11737362_x_at) / RFU TMEM51 (11727254_a_at) / Fold change /veh TMEM51 (11727254_a_at) / RFU PIWIL2 (11732686_x_at) / Fold change /veh PIWIL2 (11732686_x_at) / RFU ORM1 (11744905_x_at) / Fold change /veh ORM1 (11744905_x_at) / RFU CCDC152 (11743942_at) / Fold change /veh CCDC152 (11743942_at) / RFU ECM1 (11717891_a_at) / Fold change /veh ECM1 (11717891_a_at) / RFU IL23R (11748794_a_at) / Fold change /veh IL23R (11748794_a_at) / RFU TNFAIP8L3 (11732012_x_at) / Fold change /veh TNFAIP8L3 (11732012_x_at) / RFU MBOAT4 (11741988_at) / Fold change /veh MBOAT4 (11741988_at) / RFU 11764193_at / Fold change /veh 11764193_at / RFU TMEM53 (11763286_at) / Fold change /veh TMEM53 (11763286_at) / RFU MAGEB2 (11727129_at) / Fold change /veh MAGEB2 (11727129_at) / RFU TMEM200A (11744735_a_at) / Fold change /veh TMEM200A (11744735_a_at) / RFU CCDC152 (11751479_a_at) / Fold change /veh CCDC152 (11751479_a_at) / RFU FAM211A (11726209_a_at) / Fold change /veh FAM211A (11726209_a_at) / RFU RGS16 (11746705_a_at) / Fold change /veh RGS16 (11746705_a_at) / RFU VCAN (11755009_s_at) / Fold change /veh VCAN (11755009_s_at) / RFU RHOB (11743442_s_at) / Fold change /veh RHOB (11743442_s_at) / RFU RGS16 (11720943_a_at) / Fold change /veh RGS16 (11720943_a_at) / RFU RGS16 (11720944_at) / Fold change /veh RGS16 (11720944_at) / RFU, VPS4B / Fold change vs veh, VPS4B / RFU, CREB1 / Fold change vs veh, CREB1 / RFU, DNAJC13 / Fold change vs veh, DNAJC13 / RFU, GNAQ / Fold change vs veh, GNAQ / RFU, CDK5R1 / Fold change vs veh, CDK5R1 / RFU, ZRANB3 / Fold change vs veh, ZRANB3 / RFU, CUL4A / Fold change vs veh, CUL4A / RFU, CCNY / Fold change vs veh, CCNY / RFU, UFL1 / Fold change vs veh, UFL1 / RFU, COG3 / Fold change vs veh, COG3 / RFU, DIAPH2 / Fold change vs veh, DIAPH2 / RFU, SKA2 / Fold change vs veh, SKA2 / RFU, AFF3 / Fold change vs veh, AFF3 / RFU, LMF1 / Fold change vs veh, LMF1 / RFU, IPO11 / Fold change vs veh, IPO11 / RFU, DFFB / Fold change vs veh, DFFB / RFU, FOXP1 / Fold change vs veh, FOXP1 / RFU, CARD8 / Fold change vs veh, CARD8 / RFU, STRN3 / Fold change vs veh, STRN3 / RFU, ADK / Fold change vs veh, ADK / RFU, RASSF2 / Fold change vs veh, RASSF2 / RFU, WIPF1 / Fold change vs veh, WIPF1 / RFU, LARP1B / Fold change vs veh, LARP1B / RFU, RASA1 / Fold change vs veh, RASA1 / RFU, RB1 / Fold change vs veh, RB1 / RFU, PPFIA1 / Fold change vs veh, PPFIA1 / RFU, MAT2A / Fold change vs veh, MAT2A / RFU, CCT5 / Fold change vs veh, CCT5 / RFU, WDR92 / Fold change vs veh, WDR92 / RFU, CUX1 / Fold change vs veh, CUX1 / RFU, TTC7A / Fold change vs veh, TTC7A / RFU, TMEM135 / Fold change vs veh, TMEM135 / RFU, DEPTOR / Fold change vs veh, DEPTOR / RFU, CPM / Fold change vs veh, CPM / RFU, DNAJB6 / Fold change vs veh, DNAJB6 / RFU, CACNA2D3 / Fold change vs veh, CACNA2D3 / RFU, DTX4 / Fold change vs veh, DTX4 / RFU, TFCP2 / Fold change vs veh, TFCP2 / RFU, GMCL1 /// GMCL1P1 / Fold change vs veh, GMCL1 /// GMCL1P1 / RFU, AEBP2 / Fold change vs veh, AEBP2 / RFU, SNHG1 /// SNORD22 /// SNORD25 /// SNORD26 /// SNORD27 /// SNORD28 /// SNORD29 /// SNORD31 / Fold change vs veh, SNHG1 /// SNORD22 /// SNORD25 /// SNORD26 /// SNORD27 /// SNORD28 /// SNORD29 /// SNORD31 / Fold change (Aza/veh), C12orf56 (ProbeSet 11735607_a_at) / Fold change (ACY-1035/veh), C12orf56 (ProbeSet 11735607_a_at) / Fold change (Aza/veh), FGFR1OP (ProbeSet 11751329_s_at) / Fold change (ACY-1035/veh), FGFR1OP (ProbeSet 11751329_s_at) / Fold change (Aza/veh), VPS36 (ProbeSet 11739960_a_at) / Fold change (ACY-1035/veh), VPS36 (ProbeSet 11739960_a_at) / RFU SYPL1 (11715823_x_at) / Fold change /veh SYPL1 (11715823_x_at) / RFU IGFBP7 (11715501_s_at) / Fold change /veh IGFBP7 (11715501_s_at) / RFU REEP3 (11722064_at) / Fold change /veh REEP3 (11722064_at) / RFU IGLL1 (11728026_x_at) / Fold change /veh IGLL1 (11728026_x_at): dose or concentration left out as unconfirmed", "conditions": "ProbeSet 11719185_x_at; LIST B"}
{"smiles": "Nc1ccc(-c2cccs2)cc1NC(=O)c1ccc2c(c1)cc(C1CC1)n2CCN1CCOCC1", "note": "[ACY-1035]", "values": [{"measurement": "Fold change vs veh, N4BP2L2", "value": 1.03}]}
